Data taken from patent US6384086B1, “Ethene containing solutions and use thereof in methods of therapy or prophylaxis” (priority 1996, dated 2002).

Experiments:
[1] = liquid containing reactive components
Hepatitis C = experiment: trial on a Hepatitis C sufferer, ALT count as infection marker; assay type: in vivo, human; conditions: for reduction of ALT count: over 16 week trial period, same trialist, interferon 9 million IU weekly
[2] = test system: Poliovirus type 1 (Sabin)
[3] = test system: eight bacterial strains representing four bacterial genera (Staphylococcus, Pseudomonas, Klebsiella, Enterococcus)

| Compound | sterilizing effect in vitro (Herpes simplex virus) | reduction of ethene in solution by reaction with other components [1] | anti-Hepatitis C efficacy better than the interferon therapy (Hepatitis C; ALT reduction over 16 weeks) | depression (reported by trialist) (Hepatitis C; during therapy) | ALT count (Hepatitis C; end of week 4 (from 242), daily 230 millilitres ethene gas in 745 millilitres purified water) | ALT count (Hepatitis C; end of week 6) | ALT count (Hepatitis C; end of week 14) | infection symptoms (Hepatitis C; first 18 days therapy) | reduction of ALT count (Hepatitis C) | ALT count (Hepatitis C; week 16) | sterilizing effect in vitro (Influenza A (H3N2)) | sterilizing effect in vitro [2] | sterilizing effect in vitro [3] |
| --- | --- | --- | --- | --- | --- | --- | --- | --- | --- | --- | --- | --- | --- |
| C=C [ethene] | not to be sterilized | 50% | 337% | significant lifting | 218 u/l | 303 u/l | 93 u/l | amelioration of infection symptoms | 153 u/l | 89 u/l | not to be sterilized | not to be sterilized | without apparent sterilizing success |
| interferon [reference compound] |  |  |  |  |  |  |  |  | 35 u/l |  |  |  |  |
